For one assay, the target named is Carbonic anhydrase 14 (Homo sapiens, UniProt Q9ULX7). The assay can be described thus: Inhibition of human recombinant full length CA14.
The target in another assay is Carbonic anhydrase 12 (Homo sapiens, UniProt O43570). Nature of the assay: Inhibition of human recombinant catalytic domain CA12.
Another assay has as its target Carbonic anhydrase 9 (Homo sapiens, UniProt Q16790). Nature of the assay: Inhibition of human recombinant catalytic domain CA9.

Three molecules from ChEMBL document CHEMBL1140609, “Carbonic anhydrase inhibitors. Inhibition of transmembrane isozymes XII (cancer-associated) and XIV with anions” (Bioorg Med Chem Lett, 2007) can be followed below.

Carbonic anhydrase 12, sequence (O43570 whole entry, the tested form may be a part): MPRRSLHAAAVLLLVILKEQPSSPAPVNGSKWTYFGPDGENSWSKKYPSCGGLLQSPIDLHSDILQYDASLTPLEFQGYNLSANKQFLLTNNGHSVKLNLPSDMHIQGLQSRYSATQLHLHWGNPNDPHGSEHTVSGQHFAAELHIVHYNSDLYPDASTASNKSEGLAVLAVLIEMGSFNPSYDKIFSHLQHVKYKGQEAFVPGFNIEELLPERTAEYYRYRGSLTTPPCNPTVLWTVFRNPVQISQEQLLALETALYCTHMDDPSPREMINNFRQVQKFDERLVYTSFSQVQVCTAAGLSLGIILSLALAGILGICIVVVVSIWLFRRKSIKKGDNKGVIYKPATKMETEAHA
Carbonic anhydrase 14, sequence (Q9ULX7 whole entry, the tested form may be a part): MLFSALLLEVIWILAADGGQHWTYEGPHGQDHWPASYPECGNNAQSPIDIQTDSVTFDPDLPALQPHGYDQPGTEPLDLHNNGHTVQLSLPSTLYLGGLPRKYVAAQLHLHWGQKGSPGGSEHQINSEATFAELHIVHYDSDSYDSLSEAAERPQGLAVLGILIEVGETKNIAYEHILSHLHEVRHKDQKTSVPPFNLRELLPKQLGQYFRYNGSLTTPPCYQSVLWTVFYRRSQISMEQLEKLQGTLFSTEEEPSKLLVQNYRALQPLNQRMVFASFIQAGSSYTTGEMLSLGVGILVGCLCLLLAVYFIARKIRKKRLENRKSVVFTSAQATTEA

A word on the Ki: it is the dissociation constant of the complex between target and ligand, obtained from inhibition or displacement. Turning to `OB(O)c1ccccc1` [PHENYLBORONIC ACID], the results for the Ki at Carbonic anhydrase 14 and at Carbonic anhydrase 12 were 92 µM and 800 µM, respectively.

Turning to `NS(=O)(=O)O` [SULFAMATE], the results for the Ki on Carbonic anhydrase 9, at Carbonic anhydrase 14 and on Carbonic anhydrase 12 were 92 µM, 1090 µM and 700 µM, respectively.

As for `NS(N)(=O)=O` [SULFAMIDE], the results for the inhibition constant (Ki) on Carbonic anhydrase 14 and at Carbonic anhydrase 12 were 750 µM and 830 µM, respectively.
